Consider 13 molecules from patent US20090239877A1, “NOVEL 1,2,4-TRIAZOLE DERIVATIVES AND PROCESS OF MANUFACTURING THEREOF” (AETERNA ZENTARIS GmbH, priority 2008, published 2009).

Experiment [1] concerns the target T1, human GHS-R 1a (Homo sapiens, UniProt Q92847). The experiment in a line: GHS-R 1a receptor-ligand binding assay (membrane preparations from transfected LLC PK-1 cells). The note with it: displacement of 125I-His9-ghrelin; plasma membranes of LLC PK-1 cells transiently transfected with human GHS-R 1a; mean of at least two independent experiments in triplicates. Details: expressed in transfected cells. In outline: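 Membranes (10 μg protein) from LLC PK-1 cells transiently transfected with human GHS-R 1a cDNA were incubated 60 min at 25° C in 50 mM Tris pH 7.3 buffer with […] ^125I-His^9-ghrelin, with nonspecific binding defined by 10^−6 M ghrelin. Filter-bound radioactivity was gamma-counted, and IC50 was obtained by non-linear regression of competition curves.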
(In general: Displacement assays read how much labelled ligand stays bound in the presence of the test substance.)

Experiment [2] has as its target T1, human GHS-R 1a. The experiment is described as follows: In vitro intracellular calcium release assay using human GHS-R 1a transfected CHO cells. The class given is cell-based. On the set-up: expressed in transfected cells; host or cells: CHO-K1 Chinese hamster ovary cells (ATCC No. CCL-61), transient transfection by electroporation. The note with it: intracellular calcium release, compound at 10^-6 M, relative to basal level (0%) and 1 μM ghrelin (100%). How it is done: The ability to properly activate the receptors is assessed for any compound of the invention by comparing the degree of activation (increase of intracellular calcium) of GHS-R 1a by the compound to be tested (at 10^−6 M concentration) to the degree of activation (increase of intracellular calcium) of GHS-R 1a by 10^−6 M ghrelin (100%) and to the basal level (0%). Such assessment can be readily performed by the skilled artisan due to his expert knowledge. The output is a percentage value for each compound to be tested. […]
III) In Vitro Intracellular Calcium Release Assay Using Human GHS-R 1a Transfected CHO Cells
The potential of the compounds of the invention to modulate GHS receptor activity was assessed by an in vitro intracellular Calcium release assay employing CHO cells that were transfected with human GHS-R 1a.
Release of intracellular calcium or inhibition thereof was measured using the fluorescent calcium indicator assay (FLIPR) and Fluo-4 AM.
CHO cells (CHO-KI Chinese Hamster Ovary cell line, ATCC No. CCL-61) were transiently transfected with human GHS-R 1a cDNA by electroporation and plated into 96-well black bottom plates (Corning 3603) (80,000 cells/well). Transient transfections were performed using the Easyject Optima Electroporator (Equibio), according to the manufacturer's instructions.
Transfected cells were grown in Dulbecco's modified Eagle's medium without phenol red, supplemented with 10% (v/v) non-essential amino acids, […] glutamine and streptomycin-penicillin (250 μg/ml-250 u/ml) (all purchased from Cambrex) at 37° C., 5% CO2 in a humidified atmosphere for 24 hours.
After incubation, transfected cells were washed with 150 μl Buffer A [Hanks' balanced salt solution (Sigma H-6648), 0.5% (v/v) BSA (Sigma A-7906), 20 mM CaCl2, 2.5 mM probenecid (pH 7.4, dissolved in 1 M NaOH) (Sigma P-8761)] and were then loaded with fluorescent calcium indicator Fluo-4 AM (10^−6 M) (Interchim UP72972) prepared in Buffer A, additionally containing 0.06% pluronic acid (Molecular probes P-6867) (a […] detergent which facilitates Fluo-4AM ester loading). (Loading: 100 μl per well of Buffer A containing 120 μl/ml Pluronic Acid and 1 μM Fluo-4AM was added to the cells).
After loading with Fluo-4 AM, transfected cells were incubated for 1 hour in the dark at 37° C.
Compounds to be tested were dissolved in Buffer A in triplicates at a concentration of 10^−6 M and distributed into another 96-well plate (Fisher Labosi A1210500).
Following incubation, excess Fluo-4AM was removed, 100 μl of Buffer A was added to each well at room temperature and immediately removed by aspiration. This was then repeated, before adding 50 μl Buffer A to each well.
Transfected cells were further incubated room temperature for 30 min to allow complete de-esterification of intracellular Fluo-4AM esters.
Subsequently, both plates, the black-bottom plate containing transfected cells and the microtiter plate containing the compounds to be tested, were then placed into a temperature-regulated (25° C.) FlexStation machine (benchtop scanning fluorometer Flex Station II, Molecular Devices, Sunnyvale, Calif., USA) for fluorescence output measurements.
Basal fluorescence output from the transfected cells was measured for 15 sec and then 50 μl of the compounds to be tested were automatically distributed into the wells containing the transfected cells. The fluorescence output was then recorded for a further 45 sec.
Excitation and emission wavelengths were 485 nm and 525 nm, respectively. Basal fluorescence intensity of Fluo-4AM-loaded transfected cells without compounds to be tested varied between 800-1200 arbitrary units, whereas maximal fluorescence output of dye-loaded transfected cells upon incubation with the compounds to be tested varied between 5000-7000 arbitrary units and was equivalent to that achieved by stimulation of dye-loaded transfected cells with 10^−6 M ghrelin. […]
Background: A change in cytosolic calcium serves as a functional read-out for many receptors and channels.

The target of experiment [3] is T1, human GHS-R 1a. The experiment is described as above. The class given is cell-based. On the set-up: expressed in transfected cells; host or cells: CHO-K1 Chinese hamster ovary cells (ATCC No. CCL-61), transient transfection by electroporation. The settings on record: antagonist dissociation constant, antagonist inhibition curves in the presence of 10^-7 M ghrelin, Cheng-Prusoff equation, Fluo-4 AM.

As usually defined, the IC50 is the concentration that gives 50% inhibition. A low value points to higher potency. What is called Kb is the affinity of an antagonist, worked out from how it opposes an agonist.

T1 sequence (Q92847 whole entry): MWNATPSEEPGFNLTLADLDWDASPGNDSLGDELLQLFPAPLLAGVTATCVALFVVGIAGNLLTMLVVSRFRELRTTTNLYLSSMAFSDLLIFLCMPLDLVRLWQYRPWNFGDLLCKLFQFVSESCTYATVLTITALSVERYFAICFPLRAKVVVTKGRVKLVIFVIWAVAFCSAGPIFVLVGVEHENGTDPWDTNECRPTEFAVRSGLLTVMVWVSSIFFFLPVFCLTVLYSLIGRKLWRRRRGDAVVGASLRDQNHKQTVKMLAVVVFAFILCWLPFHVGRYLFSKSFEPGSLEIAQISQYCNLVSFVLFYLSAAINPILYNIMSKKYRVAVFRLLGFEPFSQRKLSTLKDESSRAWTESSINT

`COc1ccc(Cn2c(CCc3ccccc3)nnc2[C@@H](Cc2c[nH]c3ccccc23)NC(=O)C2CCOCC2)c(OC)c1` [Compound 12, N-((R)-1-(4-(2,4-dimethoxybenzyl)-5-phenethyl-4H-1,2,4-triazol-3-yl)-2-(1H-indol-3-yl)ethyl)-tetrahydro-2H-pyran-4-carboxamide] showed an IC50 in experiment [1] of 15.8 nM. Further, in experiment [2], the activation at 1 µM was determined as 3%. Moreover, in experiment [3], the Kb amounted to 68 nM.
The molecule `O=C(N[C@H](Cc1c[nH]c2ccccc12)c1nnc(CCc2ccccc2)n1Cc1cccc2ccccc12)c1ccccn1` [Compound 16, N-((R)-2-(1H-indol-3-yl)-1-(4-((naphthalen-1-yl)methyl)-5-phenethyl-4H-1,2,4-triazol-3-yl)ethyl)picolinamide] registered an IC50 in experiment [1] of 125 nM. In addition, in experiment [3], the Kb came out at 79 nM.
In turn, `COc1ccc(Cn2c(CCc3ccccc3)nnc2[C@@H](Cc2c[nH]c3ccccc23)NC(=O)c2ccn[nH]2)c(OC)c1` [Compound 8, N-((R)-1-(4-(2,4-dimethoxybenzyl)-5-phenethyl-4H-1,2,4-triazol-3-yl)-2-(1H-indol-3-yl)ethyl)-1H-pyrazole-5-carboxamide] returned an IC50 in experiment [1] of 350 nM. Moreover, the activation at 1 µM in experiment [2] amounted to 0%. Further, the Kb in experiment [3] came to 64 nM.
Regarding `COc1ccc(Cn2c(CCc3c[nH]c4ccccc34)nnc2[C@@H](Cc2c[nH]c3ccccc23)NC(=O)c2ccn[nH]2)cc1` [Compound 14, N-((R)-1-(5-(2-(1H-indol-3-yl)ethyl)-4-(4-methoxybenzyl)-4H-1,2,4-triazol-3-yl)-2-(1H-indol-3-yl)ethyl)-1H-pyrazole-5-carboxamide], the IC50 in experiment [1] was 89.8 nM. Besides, the activation at 1 µM in experiment [2] was found to be 15%. Besides, the Kb in experiment [3] turned out to be 12.8 nM.
On to `COc1ccc(Cn2c(CCc3ccccc3)nnc2[C@@H](Cc2c[nH]c3ccccc23)NC(=O)c2ccnnc2)c(OC)c1` [Compound 7, N-((R)-1-(4-(2,4-dimethoxybenzyl)-5-phenethyl-4H-1,2,4-triazol-3-yl)-2-(1H-indol-3-yl)ethyl)pyridazine-4-carboxamide], for which, in experiment [2], the activation at 1 µM was found to be 3%. Also, the Kb in experiment [3] amounted to 57 nM.
Molecule `O=C(N[C@H](Cc1c[nH]c2ccccc12)c1nnc(CCCc2c[nH]c3ccccc23)n1Cc1ccccc1)C1CCOCC1` [Compound 23, N-((R)-1-(5-(3-(1H-indol-3-yl)propyl)-4-benzyl-4H-1,2,4-triazol-3-yl)-2-(1H-indol-3-yl)ethyl)-tetrahydro-2H-pyran-4-carboxamide] displayed an IC50 in experiment [1] of 370 nM. Moreover, in experiment [2], the activation at 1 µM amounted to 15%. Further, the Kb in experiment [3] was 50 nM.
In experiment [1], `O=C(N[C@H](Cc1c[nH]c2ccccc12)c1nnc(CCc2ccccc2)n1Cc1cccc2ccccc12)C1CCOCC1` [Compound 19, N-((R)-2-(1H-indol-3-yl)-1-(4-((naphthalen-1-yl)methyl)-5-phenethyl-4H-1,2,4-triazol-3-yl)ethyl)-tetrahydro-2H-pyran-4-carboxamide] came in with an IC50 of 390 nM. The activation at 1 µM in experiment [2] stood at 0%. The Kb in experiment [3] came out at 275 nM.
On the same counts, the results for `O=C(N[C@H](Cc1c[nH]c2ccccc12)c1nnc(CCCc2c[nH]c3ccccc23)n1Cc1ccccc1)c1ccccn1` [Compound 21, N-((R)-1-(5-(3-(1H-indol-3-yl)propyl)-4-benzyl-4H-1,2,4-triazol-3-yl)-2-(1H-indol-3-yl)ethyl)picolinamide] are 80 nM, 0% and 300 nM.
In experiment [1], `COc1ccc(Cn2c(CCc3cc4ccccc4[nH]3)nnc2[C@@H](Cc2c[nH]c3ccccc23)NC(=O)C2CCOCC2)c(OC)c1` [Compound 11, N-((R)-1-(5-(2-(1H-indol-2-yl)ethyl)-4-(2,4-dimethoxybenzyl)-4H-1,2,4-triazol-3-yl)-2-(1H-indol-3-yl)ethyl)-tetrahydro-2H-pyran-4-carboxamide] returned an IC50 of 12 nM. In addition, the activation at 1 µM in experiment [2] turned out to be 0%. Also, the Kb in experiment [3] stood at 40 nM.
Take `O=C(N[C@H](Cc1c[nH]c2ccccc12)c1nnc(Cc2ccccc2)n1Cc1ccc(Cl)c(Cl)c1)C1CCOCC1` [Compound 37, N-((R)-1-(4-(3,4-dichlorobenzyl)-5-benzyl-4H-1,2,4-triazol-3-yl)-2-(1H-indol-3-yl)ethyl)-tetrahydro-2H-pyran-4-carboxamide]: the IC50 in experiment [1] is 200 nM. Moreover, the activation at 1 µM in experiment [2] worked out at 0%. Moreover, the Kb in experiment [3] was 215 nM.
Turning to `O=C(N[C@H](Cc1c[nH]c2ccccc12)c1nnc(Cc2ccccc2)n1Cc1ccc(Cl)c(Cl)c1)c1ccccn1` [Compound 36, N-((R)-1-(4-(3,4-dichlorobenzyl)-5-benzyl-4H-1,2,4-triazol-3-yl)-2-(1H-indol-3-yl)ethyl)picolinamide], the IC50 in experiment [1] amounted to 70 nM. In addition, the activation at 1 µM in experiment [2] was determined as 20%. The Kb in experiment [3] was 215 nM.
As to `COc1ccc(Cn2c(CCc3c[nH]c4ccccc34)nnc2[C@H](Cc2c[nH]c3ccccc23)NC(=O)c2cnccn2)cc1` [Compound 29, N-((S)-1-(5-(2-(1H-indol-3-yl)ethyl)-4-(4-methoxybenzyl)-4H-1,2,4-triazol-3-yl)-2-(1H-indol-3-yl)ethyl)pyrazine-2-carboxamide], the activation at 1 µM in experiment [2] was found to be 0%. Further, in experiment [3], the Kb is 215 nM.
As for `O=C(Cc1ccccn1)N[C@H](Cc1c[nH]c2ccccc12)c1nnc(Cc2ccccc2)n1Cc1ccc(Cl)c(Cl)c1` [Compound 34, N-((R)-1-(4-(3,4-dichlorobenzyl)-5-benzyl-4H-1,2,4-triazol-3-yl)-2-(1H-indol-3-yl)ethyl)-2-(pyridin-2-yl)acetamide], the IC50 in experiment [1] amounted to 110 nM. Moreover, the activation at 1 µM in experiment [2] was 0%. For the same molecule, the Kb in experiment [3] came to 340 nM.
